Where a name gives a salt, the structure may show the parent alone.
The molecules below were run against T1, recombinant human β tryptase (Homo sapiens, UniProt Q15661) (assay: Tryptase chromogenic enzyme assay (S2366 substrate), Ki determination). Conditions: room temperature, 0.5 mM S2366 substrate (2×Km), read at 405 nm; Ki=IC50/(1+[Substrate]/Km).
T1 construct: made in house; host or cells: yeast cells
Type: biochemical
Experimental: Tryptase inhibition activity is confirmed using either isolated human lung tryptase or recombinant human β tryptase expressed in yeast cells. Essentially equivalent results are obtained using isolated native enzyme or the expressed enzyme. The assay procedure employs a 96 well microplate (Costar 3590) using L-pyroglutamyl-L-prolyl-L-arginine-para-nitroanilide (S2366: Quadratech) as substrate (essentially as described by McEuen et. al. Biochem Pharm, 1996, 52, pages 331-340). Assays are performed at room temperature using 0.5 mM substrate (2×Km) and the microplate is read on a microplate reader (Beckman Biomek Plate reader) at 405 nm wavelength. It was determined using the procedure set forth herein.
Materials and Methods for Tryptase Primary Screen (Chromogenic Assay)
S2366 (Stock solutions of 2.5 mM).
Purified recombinant beta Tryptase Stocks of 310 ug/ml.
• Add 60 ul of diluted substrate (final concentration of 500 uM in assay buffer) to each well • Add compound in duplicates, final concentration of 20 uM, volume 20 ul • Add enzyme at a final concentration of 50 ng/ml in a volume of 20 ul • Total volume for each well is 100 ul • Agitate briefly to mix and incubate at room temp in the dark for 30 minutes • Read absorbencies at […]
Each plate has the following controls • Totals: 60 ul of substrate, 20 ul of buffer (with 0.2% final concentration of DMSO), 20 ul of enzyme • Non-specific: 60 ul of substrate, 40 ul of buffer (with 0.2% DMSO) • Totals: 60 ul of substrate, 20 ul of buffer (No DMSO), 20 ul of enzyme • Non-specific: 60 ul of substrate, 40 ul of buffer (No DMSO) Protocol (IC50 and Ki Determination)
The protocol is essentially the same as above except that the compound is added in duplicates at the following final concentrations: 0.01, 0.03, 0.1, 0.3, 1, 3, 10 uM (All dilutions carried out manually). For every assay, whether single point or IC50 determination, a standard compound is used to derive IC50 for comparison. From the IC 50 value, the Ki can be calculated using the following formula: Ki=IC50/(1+[Substrate]/Km).

T1 sequence (Q15661 31-275): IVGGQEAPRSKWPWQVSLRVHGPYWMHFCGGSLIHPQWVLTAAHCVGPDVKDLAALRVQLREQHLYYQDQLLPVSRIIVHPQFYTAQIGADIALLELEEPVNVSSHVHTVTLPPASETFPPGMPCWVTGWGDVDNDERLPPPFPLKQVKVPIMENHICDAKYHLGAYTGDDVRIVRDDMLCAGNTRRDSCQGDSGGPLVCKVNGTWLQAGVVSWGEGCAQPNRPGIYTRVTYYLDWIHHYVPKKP

Ki [µM]	Compound
0.093	N#CC1(c2cccc(CN)c2)CCN(C(=O)c2cncc(CCc3ccccc3)c2)CC1 [Example 35, 4-(3-Aminomethyl-phenyl)-1-(5-phenethyl-pyridine-3-carbonyl)-piperidine-4-carbonitrile]
0.069	Cc1ccc(CN)cc1C1CCN(C(=O)c2cncc(CCc3ccccc3)c2)CC1 [Example 18, 4-Methyl-3-[1-(5-phenylethyl-pyridine-3-carbonyl)-piperidin-4-yl]-benzylamine di-hydrochloride]
0.18	NCc1cccc(C2CCN(C(=O)c3cccc(CCc4ccccc4O)c3)CC2)c1 [Example 98, 1-[4-(3-Aminomethyl-phenyl)-piperidin-1-yl]-1-{3-[2-(2-hydroxy-phenyl)-ethyl]-phenyl}-methanone hydrochloride]
0.87	NCc1cccc(C2CCN(C(=O)c3cccc(C#Cc4ccc(F)cc4)c3)CC2)c1 [Example 83, 1-[4-(3-Aminomethyl-phenyl)-piperidin-1-yl]-1-[3-(4-fluoro-phenylethynyl)-phenyl]-methanone trifluoroacetate]
0.29	NCc1cccc(C2CCN(C(=O)c3scc4c3CCCC4)CC2)c1 [Example 70, 1-[4-(3-Aminomethyl-phenyl)-piperidin-1-yl]-1-(4,5,6,7-tetrahydro-benzo[c]thiophen-1-yl)-methanone-trifluoroacetate]
0.05	NCc1cccc(C2CCN(C(=O)c3ccc(CCc4ccccc4)s3)CC2)c1 [Example 13, 3-[1-(5-Phenylethyl-thiophene-2-carbonyl)-piperidin-4-yl]-benzylamine hydrochloride]
0.19	NCc1cccc(C2CCN(C(=O)c3cc4sc(Cl)cc4s3)CC2)c1 [Example 92, 1-[4-(3-Aminomethyl-phenyl)-piperidin-1-yl]-1-(5-chloro-thieno[3,2-b]thiophen-2-yl)-methanone trifluoroacetate]
1.07	NCc1cccc(C2CCN(C(=O)c3cccc(COc4ccccc4)c3)CC2)c1 [Example 15, 3-[1-(3-Phenoxymethyl-benzoyl)-piperidin-4-yl]-benzylamine hydrochloride]
0.39	NCc1cccc(C2CCN(C(=O)c3cccc(-c4nnc(-c5ccccc5Cl)o4)c3)CC2)c1 [Example 49, 1-[4-(3-Aminomethyl-phenyl)-piperidin-1-yl]-1-{3-[5-(2-chloro-phenyl)-[1,3,4]oxadiazol-2-yl]-phenyl}-methanone trifluoroacetate]
0.18	NCc1cccc(C2CCN(C(=O)c3cccc(-c4nnc(-c5ccccc5)o4)c3)CC2)c1 [Example 19, 3-{1-[3-(5-Phenyl-1,3,4-oxadiazol-2-yl)-phenylcarbonyl]-piperidin-4-yl}-benzylamine hydrochloride]
0.031	NCc1cccc(C2CCN(C(=O)c3ccc(Cl)c(Cl)c3)CC2)c1 [Example 36, [4-(3-Aminomethylphenyl)piperidin-1-yl]-(3,4-dichlorophenyl)methanone trifluoroacetate]
0.49	NCc1cc(C2CCN(C(=O)c3cncc(CCc4ccccc4)c3)CC2)cs1 [Example 100, dihydrochloride]
0.45	NCc1cccc(C2CCN(C(=O)c3ccc(CCc4ccccc4)cc3)CC2)c1 [Example 97, 1-[4-(3-Aminomethylphenyl)-piperidin-1-yl]-1-(4-phenylethyl-phenyl)-methanone hydrochloride]
0.39	NCc1cccc(C2CCN(C(=O)c3ccc(Cl)cc3)CC2)c1 [Example 48, 1-[4-(3-Aminomethyl-phenyl)-piperidin-1-yl]-1-(4-chloro-phenyl)-methanone trifluoroacetate]

Source: patent US6977263B2, “Chemical compounds” (Aventis Pharmaceuticals Inc., priority 2000, dated 2005)
